“Also recorded” adds a separate entry of the source.
Tests used:
HIV-1 LTR II G4 = experiment: 1D 1H-NMR titration of HIV-1 LTR II G4; assay type: binding; conditions: ratio 1:0, 1:3 and 1:6; even at 1:6
Method: (§1) The single DNA nucleotides were purchased from Integrated DNA Technologies (IDT). The DNA sample at 100 μM (single strands) was then re-annealed by heating to 95° C. for 15 min, followed by slow cooling to room temperature overnight in an annealing buffer of 70 mM KCl and 20 mM potassium phosphate (pH 7.0). The final NMR samples contained 0.1 mM […] in 20 mM potassium phosphate buffer (pH 7.0) and 70 mM KCl.
(§2) To verify whether or not the compounds interact with G4 DNA, we performed NMR titration experiments by running one-dimensional (1D) ^1H NMR spectra at 25° C. All compounds were dissolved in isotope-labeled d6-DMSO (from Sigma-Aldrich) at about 50 mM concentration, working as stock solutions. To avoid chemical shift changes of G4 DNA resulted from d6-DMSO addition, 10 μL d6-DMSO was added into 500 μL of 0.1 mM G4 DNA solution in the NMR buffer (20 mM potassium phosphate buffer and 70 mM KCl, pH 7.0, 10% D2O) and then a 1D ^1H-NMR spectrum was recorded as a reference. During NMR titration experiments, each compound was added into G4 DNA solution, the maximal volume of 10 μL of each compound in d6-DMSO solution was thought as a final data point.
(§3) Since not only LTR III can form noncanonical G4, LTR II and LTR IV can also form mutually exclusive G4 structures (24). […]

[1] = test system: LTR III G4 / hnRNP A2 interaction; experiment: 1D 1H-NMR titration of LTR III G4/albofungin complex with RRM1,2 domain of hnRNP A2; assay type: binding; conditions: G4:albofungin 1:3; G4:albofungin:hnRNP A2 1:3:2
Method: as §2
LTR G4 region is under control of two nuclear proteins: nucleolin, which upon binding increases LTR G4 stability and thus silences transcription (26); the human ribonucleoprotein (hnRNP) A2/B1, which can unfold the LTR G4 efficiently and thus enhances HIV-1 transcription (27). To sum up, G4 binding proteins perform like a switch in the determination of G4's conformation to control viral transcription modulation. Therefore, the RRM domain of human ribonucleoprotein (hnRNP A2) was expressed and purified, and the NMR titration of LTR III G4 with the RRM domain of hnRNP A2 was performed. […]

[2] = test system: human telomeric variant htel21_T18 G4; experiment: 1D 1H-NMR titration of human telomeric htel21_T18 G-quadruplex; assay type: binding; conditions: concentration ratio 1:5
Method: as §1, §2
The LTR sequence and other G-rich DNA or RNA strands can form polymorphic G4s. For example, a chair-type conformation is adopted by a human telomeric variant, htel21_T18 (d[(GGGTTA)2GGGTTTGGG]) (SEQ ID NO: 1) (25). […]

HIV-1 LTR III G4 = experiment: 1D 1H-NMR titration of HIV-1 LTR III G4 with compounds; assay type: binding; conditions: for interaction / binding with LTR III G4 / binding affinity to LTR III G4 compared with albofungin: NMR titration; for interaction / binding with LTR III G4: result in words
Method: as §1, §2

HIV-1 LTR IV G4 = experiment: 1D 1H-NMR titration of HIV-1 LTR IV G4; assay type: binding; conditions: ratio 1:0, 1:3 and 1:6; even at 1:6
Method: as §1, §2, §3

[3] = test system: RRM1,2 domain of hnRNP A2; experiment: 1H-15N HSQC titration of RRM1,2 domain of hnRNP A2 with compound; assay type: binding, human; conditions: titrated at 1:10
Method: The coding sequence of the RRM domain of hnRNP A2 was inserted into the expression vector pET-28a(+) (Novagen). The protein was expressed in Escherichia coli BL21(DE3) at 37° C. for 5 h. Cell lysates were subject to affinity purification with the nickel-nitrilotriacetic acid resin (Qiagen) followed by the cleavage of the hexahistidine tag with the P3C enzyme. The resulting protein was further purified on a Superdex 75 column (GE Healthcare). For the NMR studies, the samples uniformly labeled with ^15N isotopes were expressed and purified as described above, except that the cells were grown in an M9 medium containing [^15N] ammonium chloride (Cambridge Isotopes) and D-glucose.
The titration experiments were performed by recording a series of 2D ^15N-HSQC spectra on uniformly ^15N-labeled RRM domain (˜0.1 mM) in the presence of different amounts of DNA ranging from 0 to 0.5 mM at 25° C. The protein sample and the stock solutions of DNA were all prepared in 20 mM potassium phosphate buffer and 70 mM KCl, pH 7.0, 10% D2O.
All compounds were dissolved in isotope-labeled d6-DMSO (from Sigma-Aldrich) at about 50 mM concentration, working as stock solutions. […]

[4] = Solubility in the solvent system of the NMR titration; assay type: physicochemical; conditions: in solution / solvent system at the test concentration
Method: as §2

Epstein-Barr viruses = conditions: literature (15); cited from earlier work
[5] = test system: DNA and RNA G4s of LTR-III; conditions: literature; cited from earlier work
human telomeric G4s = conditions: literature (32); cited from earlier work
HIV-1 U3 RNA G4 = experiment: 1D 1H-NMR titration of HIV-1 U3 RNA G4; assay type: binding; conditions: ratio 1:0.5, 1:1, 1:3 and 1:5
Method: as §1
as §2, with “point. […]” for “point.”

LTR-III G4 = experiment: CD spectroscopy of LTR-III G4 with compound; set-up: species or system HIV-1; conditions: increasing compound concentration ratio, 25° C., 220-320 nm
Method: Circular dichroism (CD) spectra were recorded on Chirascan CD spectrometer at 25° C. from 220 nm to 320 nm under liquid mode; a 1 mm path-length quartz cuvette was used in the test.
Except for NMR titration and X-ray diffraction; Circular Dichroic (CD) spectroscopy is another frequently used method for G4 studies because it is very sensitive to observing slight changes in DNA conformation. (28) Due to its sensitivity, easy manipulation of studied samples, and relatively cheap, CD spectroscopy is regarded as a crucial complementary method in G4 studies; meanwhile, LTR-III G4's structure has only been resolved using NMR elucidation in K^+ solution, a typical hybrid conformation; and different G4 conformation has distinct CD spectra. So CD test was conducted to see if 477-albo will change the conformation of LTR-III G4.

Sequence of RRM1,2 domain of hnRNP A2 (P22626 21-191): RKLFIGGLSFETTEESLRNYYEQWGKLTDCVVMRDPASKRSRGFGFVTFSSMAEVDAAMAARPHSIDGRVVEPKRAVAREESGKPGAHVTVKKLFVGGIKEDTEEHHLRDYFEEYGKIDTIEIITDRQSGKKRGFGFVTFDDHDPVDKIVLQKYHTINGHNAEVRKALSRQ

| Compound | interaction / binding with LTR III G4 (HIV-1 LTR III G4) | binding affinity to LTR III G4 compared with albofungin (HIV-1 LTR III G4) | other results |
| --- | --- | --- | --- |
| albofungin | potent interaction | – | chemical shift changes of LTR II G4 1D 1H NMR spectra (HIV-1 LTR II G4): no significant chemical shift changes; changes in imino region of LTR III G4/albofungin complex on adding RRM1,2 domain of hnRNP A2 [1]: no changes in the profile of the imino region; chemical shift changes of htel21_T18 1D 1H NMR spectra [2]: no chemical shift changes; chemical shift changes in the imino region of the 1D 1H-NMR spectrum of LTR III G4 (HIV-1 LTR III G4; G4:compound concentration ratio 1:0.5, 25° C.): significant chemical shift changes; chemical shift changes of LTR IV G4 1D 1H NMR spectra (HIV-1 LTR IV G4): no significant chemical shift changes; binding to the RRM domain of hnRNP A2 [3]: did not bind; solubility [4]: poor solubility |
| CO[C@@H]1CC[C@H](O)c2c1oc1c3c4c(c(O)c1c2=O)-c1c(cc2cc(C)[nH]c(=O)c2c1O)C[C@H]4OCO3 [505-albo] | bind to LTR III G4 | much weaker than albofungin | – |
| CO[C@@H]1CC[C@H](O)c2c1oc1c3c4c(c(O)c1c2=O)-c1c(cc2c(Cl)c(C)n(N)c(=O)c2c1O)C[C@H]4OCO3 [chloroalbofungin] | poor binding affinity | – | – |
| CN(C)c1ccc(Nc2c3ccc(NC(=O)CCN4CCCC4)cc3nc3cc(NC(=O)CCN4CCCC4)ccc23)cc1 [BRACO-19] | – | – | activity against Epstein-Barr viruses (Epstein-Barr viruses): active against; binding to DNA and RNA G4s of LTR-III [5]: binds both DNA and RNA G4s of LTR-III; activity against human telomeric G4s (human telomeric G4s): active against |
| CO[C@@H]1CC[C@H](O)c2c1oc1c3c4c(c(O)c1c2=O)-c1c(cc2cc(C)n(NC(C)=O)c(=O)c2c1O)C[C@H]4OCO3 [562-albo] | bind to LTR III G4 | much weaker than albofungin | – |
| Cc1cc2cc3c(c(O)c2c(=O)n1N)-c1c2c(c4oc5c(c(=O)c4c1O)[C@@H](O)CC[C@H]5O)OCO[C@@H]2C3 [506-2-albo] | bind to LTR III G4 | much weaker than albofungin | – |
| CO[C@@H]1CC[C@H](O)c2c1oc1c3c4c(c(O)c1c2=O)-c1c(cc2cc(C)n(C)c(=O)c2c1O)C[C@H]4OCO3 [519-albo] | bind to LTR III G4 | much weaker than albofungin | – |
| COc1c2c(c(O)c3c(=O)c4c(oc13)[C@H](O)CC[C@@H]4O)-c1c(cc3cc(C)n(N)c(=O)c3c1O)CC2 [492-albo] | bind to LTR III G4 | much weaker than albofungin | – |
| Cc1cc2cc3c(c(O)c2c(=O)n1N)-c1c2c(c4oc5c(c(=O)c4c1O)[C@@H](O)[C@@H](O)CC5)OCO[C@@H]2C3 [506-1-albo] | bind to LTR III G4 | much weaker than albofungin | – |
| COc1c2c(c(O)c3c(=O)c4c(oc13)[C@H](O)CC[C@@H]4O)-c1c(cc3cc(C)[nH]c(=O)c3c1O)CC2 [477-albo] | specific bind with LTR-III DNA G4; also recorded: bind to LTR III G4 | much weaker than albofungin | binding to U3 RNA G4 (imino region of 1D 1H-NMR spectra) (HIV-1 U3 RNA G4): not U3 RNA G4; also recorded: did not change; new imino shifts indicating conformation change of LTR III G4 (HIV-1 LTR III G4; concentration ratio increased to 1:3, between 13 to 14 ppm and 9.5 to 10.5 ppm): several strange shifts; trend of chemical shift changes of LTR III G4 imino region on titration (HIV-1 LTR III G4; ratio 1:0 to 1:8): clear trend of chemical shifts changes; conformation change of LTR-III G4 in CD spectra (LTR-III G4): noticeable conformation changes from a typical hybrid form into parallel form; solubility [4]: better solubility |
